Source: publication PMC7482817 (Theranostics, 2020)

Tests used:
[1] = test system: E. coli B2 (mcr-1); assay: Broth microdilution MIC and checkerboard assay; assay type: cell-based, Escherichia coli; settings: for Potentiation (fold): degree of colistin potentiation in the presence of sub-MIC of melatonin and its analogues: colistin plus sub-MIC of the analogue; for MIC of antibiotic in the absence of melatonin: antibiotic alone, MHB
[2] = test system: E. coli B2; assay: Total ROS (DCFH-DA); assay type: cell-based, Escherichia coli; settings: 1 h, colistin with or without melatonin 500 μg/mL, or melatonin alone
Method: (§1) Pretreatments of biochemical assays were performed using similar protocols as follows. Overnight E. coli B2 were washed, suspended in 5 mM HEPES (pH 7.0, plus 5 mM glucose) with an OD600 of 0.5, and incubated with fluorescent dyes for 30 min. […] After incubation at 37 °C for 1 hour, fluorescence intensity or absorbance or luminescence was measured by an Infinite M200 Microplate reader (Tecan).
(§2) 2′,7′-dichlorodihydrofluorescein diacetate (DCFH-DA, 10 μM) was applied to monitor levels of ROS in E. coli B2 [38], following the manufacturer's instruction (Beyotime). Fluorescence intensity was measured with the excitation wavelength of 488 nm and emission wavelength of 525 nm. […] After incubation for one hour, the absorbance of lysis buffer at 570 nm was measured.

[3] = test system: CHO cells; assay: Cytotoxicity, WST-1 assay; assay type: cell-based, Chinese Hamster; settings: colistin 0 to 128 μg/mL with melatonin 0 to 1,000 μg/mL, 24 h
Method: (§3) Cytotoxicity on CHO and HEK293T cells was determined using the water-soluble tetrazolium salt-1 (WST-1, Roche, Switzerland) assay [35].

[4] = test system: E. coli B2; assay: Intracellular SOD activity; settings: colistin with or without melatonin 500 μg/mL, or melatonin alone
[5] = test system: mcr-1 expression in E. coli B2; assay type: cell-based, Escherichia coli; settings: melatonin with or without colistin
[6] = test system: E. coli B2 (mcr-1); assay: Membrane depolarization (DiSC3(5)); assay type: cell-based, Escherichia coli; settings: melatonin 0 to 1,000 μg/mL alone, or 500 μg/mL added to colistin; 1 h
Method: as §1
3, 3-dipropylthiadicarbocyanine iodide (DiSC3(5), 0.5 μM) was applied to determine the membrane potential. Dissipated membrane potential of E. coli B2 was measured with the excitation wavelength of 622 nm and emission wavelength of 670 nm.

[7] = test system: thirteen clinical colistin-resistant E. coli from elk
[8] = test system: E. coli B2 (mcr-1); assay: Time-dependent killing; assay type: cell-based, Escherichia coli; settings: melatonin 1 mg/mL or colistin 2 μg/mL alone, 24 h
Method: Overnight E. coli B2 were diluted 1/1,000 in MHB, and incubated for 4 h (exponential phase) or 8 h (stationary phase) at 37 °C. […] At intervals, 100 μL aliquots were removed, centrifuged and resuspended in 100 μL sterile PBS. Subsequently, ten-fold serially diluted suspensions were plated on MHA plates and incubated overnight at 37 °C. Bacterial colonies were counted and the primary CFUs/mL was calculated.

[9] = test system: E. coli B2; assay: H2O2 production (Hydrogen Peroxide Assay Kit); assay type: cell-based, Escherichia coli; settings: melatonin in single or combination treatment with colistin; 1 h
Method: as §2

[10] = test system: E. coli; assay: Colistin intracellular accumulation by LC-MS/MS; assay type: cell-based, Escherichia coli; settings: co-incubation with varying doses of melatonin
[11] = test system: E. coli B2 (mcr-1); assay: Mouse peritonitis-sepsis infection model; assay type: in vivo, BALB/c mice; settings: single i.p. dose 1 h post-infection: colistin 10 mg/kg, melatonin 50 mg/kg, or combinations 5 + 50, 10 + 20, 10 + 50 mg/kg; 7 days; n = 8 or 9
Method: 6-8-week-old female BALB/c mice were obtained from Comparative Medicine Centre of Yangzhou University (Jiangsu, China). Mice were adapted for one week prior to infection. Mouse studies were performed in accordance with the relevant guidelines and regulations (ID: SCXK-2017-0007). The laboratory animal usage license number is SCXK-2017-0044, certified by Jiangsu Association for Science and Technology.
Female BALB/c mice (n = 8 or 9 per group) were intraperitoneally infected with a dose of 3.0 × 10^8 CFUs E. coli B2 suspension. […] Survival rates of mice were recorded for 7 days.

[12] = test system: HEK293T cells; assay: Cytotoxicity, WST-1 assay; assay type: cell-based, Human; settings: colistin 0 to 128 μg/mL with melatonin 0 to 1,000 μg/mL, 24 h
Method: as §3

[13] = test system: resistant bacteria; assay: Potentiation of colistin, summary over resistant strains; assay type: cell-based; settings: in resistant bacteria
[14] = test system: E. coli CP131 (mcr-3); assay: Broth microdilution MIC and checkerboard assay; assay type: cell-based, Escherichia coli
[15] = test system: E. coli MG1655; assay: Broth microdilution MIC and checkerboard assay; assay type: cell-based, Escherichia coli
[16] = test system: E. coli MG1655 (ΔkatE); assay: Broth microdilution MIC and checkerboard assay
[17] = test system: E. coli C3; assay: Broth microdilution MIC and checkerboard assay; assay type: cell-based, Escherichia coli
[18] = test system: S. enterica ATCC 13076; assay: Broth microdilution MIC and checkerboard assay; assay type: cell-based
[19] = test system: E. coli ATCC 25922; assay: Broth microdilution MIC and checkerboard assay; assay type: cell-based, Escherichia coli
[20] = test system: E. coli G6; assay: Broth microdilution MIC and checkerboard assay; assay type: cell-based, Escherichia coli
[21] = test system: K. pneumoniae D120 (mcr-8); assay: Broth microdilution MIC and checkerboard assay; assay type: cell-based
[22] = test system: E. coli G92 (mcr-1); assay: Broth microdilution MIC and checkerboard assay; assay type: cell-based, Escherichia coli
[23] = melatonin or analogue with colistin, checkerboard 8 × 8, 18 h, means of two biological replicates, synergy FIC index ≤ 0.5
[24] = antibiotic plus sub-MIC melatonin
[25] = antibiotic with melatonin, checkerboard, two biological replicates

**Q.** What does the source list for `CC(=O)NCCc1c[nH]c2ccc(O)cc12` [Analogue 5, N-acetyl-5-hydroxytryptamine]?
**A.** Potentiation (fold): degree of colistin potentiation in the presence of sub-MIC of melatonin and its analogues [1]: 32 fold; FIC index [1, 23]: 0.094

**Q.** What does the source list for `N[C@@H](Cc1c[nH]c2ccccc12)C(=O)O` [Analogue 4, L-tryptophan]?
**A.** Potentiation (fold): degree of colistin potentiation in the presence of sub-MIC of melatonin and its analogues [1]: 1 fold; FIC index [1, 23]: 2

**Q.** With `NCCc1c[nH]cn1` [Analogue 8, Histamine] as the molecule, how does the FIC index [1, 23] read?
**A.** The FIC index was over 4.

**Q.** `CO[C@H]1/C=C/O[C@@]2(C)Oc3c(C)c(O)c4c(O)c(c(/C=N/N5CCN(C)CC5)c(O)c4c3C2=O)NC(=O)/C(C)=C\C=C\[C@H](C)[C@H](O)[C@@H](C)[C@@H](O)[C@@H](C)[C@H](OC(C)=O)[C@@H]1C` [Rifampicin] was tested. Which “MIC of antibiotic in the absence of melatonin” value ([1]; 18 h, 37 °C) did it give?
**A.** The value was 128 µg/mL.

**Q.** And the “MIC of antibiotic in the presence of sub-MIC of melatonin” value [1, 24]?
**A.** The value was 128 µg/mL.

**Q.** And the FIC index [1, 25]?
**A.** The FIC index was 2.

**Q.** Which results are given for `NCCc1c[nH]c2ccccc12` [Analogue 2, Tryptamine]?
**A.** Potentiation (fold): degree of colistin potentiation in the presence of sub-MIC of melatonin and its analogues [1]: 32 fold; FIC index [1, 23]: 0.156

**Q.** For `COc1ccc2[nH]cc(CCN)c2c1` [Analogue 6, 5-Methoxytryptamine], which “Potentiation (fold): degree of colistin potentiation in the presence of sub-MIC of melatonin and its analogues” value [1] is on record?
**A.** The value was 32 fold.

**Q.** And the FIC index [1, 23]?
**A.** The FIC index was 0.156.

**Q.** What does the source list for `COc1ccc2[nH]cc(CCNC(C)=O)c2c1` [Melatonin, N-acetyl-5-methoxytryptamine]?
**A.** total ROS level [2]: had no direct effect on the total ROS level and SOD activity; effect of melatonin on cytotoxicity of colistin [3]: slightly reduced the cytotoxicity of colistin; SOD activity [4]: had no direct effect on the total ROS level and SOD activity; mcr-1 expression [5]: down-regulated in the presence of melatonin; cytoplasmic membrane potential (DiSC3(5)) [6]: caused dissipation of the cytoplasmic membrane potential; synergistic activity with colistin [7]: synergistic activity was also evidenced; killing of exponentially growing or stationary E. coli B2 by monotreatment [8]: neither melatonin nor colistin monotreatment killed; production of H2O2 [9]: significantly promoted production of H2O2 in a dose-dependent manner; intracellular colistin accumulation [10]: enhanced colistin in cells in a dose-dependent manner; survival of mice after lethal infection [11]: did not prevent a lethal infection; effect of melatonin on cytotoxicity of colistin [12]: slightly reduced the cytotoxicity of colistin; potentiation with colistin [13]: 8 to 32 fold

**Q.** What does the source list for `N[C@@H](Cc1c[nH]c2ccc(O)cc12)C(=O)O` [Analogue 3, 5-Hydroxy-L-tryptophan]?
**A.** Potentiation (fold): degree of colistin potentiation in the presence of sub-MIC of melatonin and its analogues [1]: 2 fold; FIC index [1, 23]: 1

**Q.** Which “MIC of colistin in the presence of sub-MIC of melatonin” value [14] does the source give for Colistin here?
**A.** Its value is 0.5 µg/mL.

**Q.** And the “MIC of colistin in the absence of melatonin” value ([14]; MCR-positive)?
**A.** The value was 4 µg/mL.

**Q.** And the “MIC of colistin in the presence of sub-MIC of melatonin” value ([15]; E. coli MG1655)?
**A.** The value was 0.0156 µg/mL.

**Q.** What about the “MIC of colistin in the absence of melatonin” value ([15]; E. coli MG1655, MCR-negative) of the same molecule?
**A.** The value was 0.0625 µg/mL.

**Q.** And the “killing of exponentially growing or stationary E. coli B2 by monotreatment” value [8]?
**A.** Its value is “neither melatonin nor colistin monotreatment killed”.

**Q.** What about the “survival of mice after lethal infection” value [11] of the same molecule?
**A.** Its value is “did not prevent a lethal infection”.

**Q.** And the “MIC of colistin in the presence of sub-MIC of melatonin” value [16]?
**A.** Its value is 0.0078 µg/mL.

**Q.** And the “MIC of colistin in the presence of sub-MIC of melatonin” value ([17]; E. coli C3)?
**A.** The value was 0.0312 µg/mL.

**Q.** And the “MIC of colistin in the absence of melatonin” value ([17]; E. coli C3, MCR-negative)?
**A.** Its value is 0.125 µg/mL.

**Q.** And the “MIC of colistin in the presence of sub-MIC of melatonin” value ([18]; S. enterica ATCC 13076)?
**A.** The value was 0.0156 µg/mL.

**Q.** What about the “MIC of colistin in the absence of melatonin” value ([18]; S. enterica ATCC 13076, MCR-negative) of the same molecule?
**A.** Its value is 0.125 µg/mL.

**Q.** What about the “MIC of colistin in the presence of sub-MIC of melatonin” value ([19]; E. coli ATCC 25922) of the same molecule?
**A.** Its value is 0.125 µg/mL.

**Q.** And the “MIC of colistin in the absence of melatonin” value ([19]; E. coli ATCC 25922, MCR-negative)?
**A.** Its value is 0.5 µg/mL.

**Q.** And the “MIC of colistin in the presence of sub-MIC of melatonin” value ([20]; E. coli G6)?
**A.** The value was 0.0156 µg/mL.

**Q.** What about the “MIC of colistin in the absence of melatonin” value ([20]; E. coli G6, MCR-negative) of the same molecule?
**A.** The value was 0.125 µg/mL.

**Q.** And the “MIC of antibiotic in the absence of melatonin” value ([1]; 18 h, 37 °C)?
**A.** Its value is 8 µg/mL.

**Q.** And the “MIC of antibiotic in the presence of sub-MIC of melatonin” value [1, 24]?
**A.** Its value is 0.25 µg/mL.

**Q.** What about the “MIC^a of colistin in the absence of melatonin and its analogues” value ([1]; colistin alone, broth micro-dilution in MHB, 18 h, 37 °C) of the same molecule?
**A.** Its value is 8 μg/mL.

**Q.** What about the “MIC of colistin in the presence of sub-MIC of melatonin” value [21] of the same molecule?
**A.** Its value is 0.5 µg/mL.

**Q.** What about the “MIC of colistin in the absence of melatonin” value ([21]; MCR-positive) of the same molecule?
**A.** The value was 4 µg/mL.

**Q.** What about the “MIC of colistin in the presence of sub-MIC of melatonin” value [22] of the same molecule?
**A.** The value was 0.5 µg/mL.

**Q.** And the “MIC of colistin in the absence of melatonin” value ([22]; MCR-positive)?
**A.** The value was 4 µg/mL.

**Q.** What does the source list for `CC1(C)S[C@@H]2[C@H](NC(=O)[C@H](N)c3ccccc3)C(=O)N2[C@H]1C(=O)O` [Ampicillin]?
**A.** MIC of antibiotic in the absence of melatonin ([1]; 18 h, 37 °C): 128 µg/mL; MIC of antibiotic in the presence of sub-MIC of melatonin [1, 24]: 128 µg/mL; FIC index [1, 25]: 2

**Q.** Which “Potentiation (fold): degree of colistin potentiation in the presence of sub-MIC of melatonin and its analogues” value [1] does the source give for `NCCc1c[nH]c2ccc(O)cc12` [Analogue 1, Serotonin] here?
**A.** Its value is 8 fold.

**Q.** And the FIC index [1, 23]?
**A.** Its FIC index is 0.188.

**Q.** What does the source list for `C[C@H]1c2cccc(O)c2C(=O)C2=C(O)[C@]3(O)C(=O)C(C(N)=O)=C(O)[C@@H](N(C)C)[C@@H]3[C@@H](O)[C@@H]21` [Doxycycline]?
**A.** MIC of antibiotic in the absence of melatonin ([1]; 18 h, 37 °C): 32 µg/mL; MIC of antibiotic in the presence of sub-MIC of melatonin [1, 24]: 4 µg/mL; Potentiation (fold): degree of antibiotics potentiation in the presence of sub-MIC of melatonin [1, 24]: 8 fold; FIC index [1, 25]: 0.250

**Q.** How did the “Potentiation (fold): degree of colistin potentiation in the presence of sub-MIC of melatonin and its analogues” value [1] turn out when `c1ccc2[nH]ccc2c1` [Analogue 7, Indole] was run?
**A.** The value was 8 fold.

**Q.** Which results are given for `C[C@@H](O)[C@H]1C(=O)N2C(C(=O)O)=C(S[C@@H]3CN[C@H](C(=O)N(C)C)C3)[C@H](C)[C@H]12` [Meropenem]?
**A.** MIC of antibiotic in the absence of melatonin ([1]; 18 h, 37 °C): 32 µg/mL; MIC of antibiotic in the presence of sub-MIC of melatonin [1, 24]: 32 µg/mL; FIC index [1, 25]: 2
